Measured values published in PubChem BioAssay (NCI).
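Dose response: 5 concentrations. Exposure: 48 h. Format: 96-well plates. Endpoint: linear interpolation; highest concentration if not reached. GI50 is the concentration that inhibits growth by half. TGI: concentration producing complete growth inhibition.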

How the values were obtained:
Assay in all cases: DTP human tumour cell line panel, 48 h
[1] = test system: A498 renal
[2] = test system: SNB-75 CNS
[3] = test system: A549 NSCLC
[4] = test system: OVCAR-8 ovarian
[5] = test system: UO-31 renal
[6] = test system: RPMI-8226 leukemia
[7] = test system: RXF 393 renal
[8] = test system: EKVX NSCLC
[9] = test system: UACC-62 melanoma
[10] = test system: T-47D breast

| SMILES | TGI [1] | TGI [2] | TGI [3] | TGI [4] | TGI [5] | TGI [6] | TGI [7] | TGI [8] | TGI [9] | GI50 [1] | GI50 [2] | GI50 [3] | GI50 [4] | GI50 [5] | GI50 [6] | GI50 [7] | GI50 [10] | TGI [10] | GI50 [9] | GI50 [8] |
| --- | --- | --- | --- | --- | --- | --- | --- | --- | --- | --- | --- | --- | --- | --- | --- | --- | --- | --- | --- | --- |
| O=C1CCC2(c3ccccc3)Nc3ccccc3N12 (stereo not drawn) | > 100 µM | > 100 µM | > 100 µM | > 100 µM | > 100 µM | > 100 µM | > 100 µM | > 100 µM | > 100 µM | – | – | – | – | – | – | – | – | – | – | – |
| C=C1C(=O)C23[C@H](O)C1CC[C@H]2[C@]12COC3(O)[C@@H](O)[C@@H]1C(C)(C)CC[C@@H]2O | 22.7 µM | 38.7 µM | 44.7 µM | 27.2 µM | 29 µM | 29.3 µM | 10.9 µM | 34.6 µM | 23.6 µM | – | – | – | – | – | – | – | – | – | – | – |
| COc1ccccc1-c1cc(=O)c2cc(C)c(C)c(C(=O)O)c2o1 | > 100 µM | > 100 µM | > 100 µM | > 100 µM | > 100 µM | > 100 µM | – | > 100 µM | > 100 µM | – | – | – | – | – | – | – | – | – | – | – |
| OC1=CN=COc2ccccc21 | > 100 µM | > 100 µM | > 100 µM | > 100 µM | > 100 µM | > 100 µM | > 100 µM | > 100 µM | > 100 µM | – | – | – | – | – | – | – | – | – | – | – |
| Cn1c(=O)n(C)c2cc(CNCCNc3ccnc4cc(Cl)ccc34)ccc21 | 27 µM | 35.6 µM | > 100 µM | > 100 µM | > 100 µM | 65.6 µM | 31.2 µM | – | 35.6 µM | 1.57 µM | 13.1 µM | 50.3 µM | 38.2 µM | 23.3 µM | 20.9 µM | 12.6 µM | 28.3 µM | 86.5 µM | 17.7 µM | – |
| COc1cc([C@@H]2c3cc4c(cc3[C@H](OC(C)=O)[C@H]3COC(=O)[C@@H]23)OCO4)cc(OC)c1OC | 0.583 µM | > 100 µM | > 100 µM | > 100 µM | > 100 µM | > 100 µM | 0.591 µM | > 100 µM | > 100 µM | 0.175 µM | – | 0.463 µM | 0.469 µM | 0.493 µM | 0.445 µM | 0.235 µM | – | – | 0.405 µM | 0.489 µM |
| CC1(C)COC2C(N(Cc3ccccc3)Cc3ccccc3)C(=O)N21 (stereo not drawn) | > 100 µM | 41.2 µM | > 100 µM | > 100 µM | > 100 µM | 91.3 µM | 42.5 µM | > 100 µM | 61 µM | – | – | – | – | – | – | – | – | – | – | – |
| CN(C)c1ccc(/C=C(\NC(=O)c2ccccc2)c2nc3ccc4c(c3[nH]2)C(=O)c2ccccc2C4=O)cc1 | > 100 µM | 64.2 µM | > 100 µM | > 100 µM | 7.37 µM | > 100 µM | 93.8 µM | > 100 µM | > 100 µM | – | – | – | – | – | – | – | – | – | – | – |
| C#CCN(N=O)C(=O)ON1C(=O)CCC1=O | > 100 µM | > 100 µM | > 100 µM | > 100 µM | > 100 µM | > 100 µM | > 100 µM | > 100 µM | > 100 µM | – | – | – | – | – | – | – | – | – | – | – |
| COc1cc2c(c3c1c(=O)c1ccccc1n3C)C=CC(C)(C)O2 | – | > 100 µM | > 100 µM | > 100 µM | > 100 µM | > 100 µM | 89 µM | – | > 100 µM | – | – | – | – | – | – | – | – | – | – | – |
| COC/N=C(\NC#N)NCOC | > 100 µM | > 100 µM | > 100 µM | > 100 µM | > 100 µM | > 70.8 µM | > 63.3 µM | > 100 µM | > 100 µM | – | – | – | – | – | – | – | – | – | – | – |
| C=C1C(=O)O[C@H]2[C@H]1CC/C(COC(=O)NCc1ccc(Cn3c(=O)sn(CCCCC)c3=O)cc1)=C\CC[C@@]1(C)O[C@@H]21 | 10.1 µM | 4.07 µM | 22.8 µM | 5.46 µM | 2.8 µM | – | – | 5.59 µM | 3.08 µM | 2.91 µM | 1.59 µM | 8.82 µM | 2.26 µM | 1.46 µM | – | – | 1.75 µM | 4 µM | 1.59 µM | 1.85 µM |
| CCOc1ccc(N=C(NC(=O)c2ccccc2)SC)cc1 | > 100 µM | > 100 µM | > 100 µM | > 100 µM | > 100 µM | > 100 µM | > 100 µM | > 100 µM | > 100 µM | – | – | – | – | – | – | – | – | – | – | – |
| COc1cc(OC)c2sc(-c3ccc(-n4cncc4-c4ccc(OC)c(OC)c4)cc3)nc2c1 | > 100 µM | 46 µM | > 100 µM | > 100 µM | – | > 100 µM | > 100 µM | – | > 100 µM | 2.15 µM | 7.21 µM | 41.8 µM | 21.2 µM | – | > 100 µM | 3.55 µM | 3.78 µM | > 100 µM | 8.14 µM | – |
| Cc1cc(NCc2cc(Nc3ccnc4cc(Cl)ccc34)ccc2F)nc(N2CCOCC2)n1 | 6.89 µM | 2.79 µM | 21 µM | 13.6 µM | 2.71 µM | 5.58 µM | – | 23.9 µM | – | 1.46 µM | 1.32 µM | 3.89 µM | 3.07 µM | 1.3 µM | 1.81 µM | – | 1.79 µM | 4.26 µM | – | 3.18 µM |
| COc1ccc(Nc2nc(Nc3cc(C)[nH]n3)c3cc(OC)c(OC)cc3n2)cc1 | – | 3.15 µM | – | – | 2.93 µM | 0.782 µM | 2.83 µM | 2.94 µM | 3.39 µM | – | 1.66 µM | – | – | 1.45 µM | 0.278 µM | 1.49 µM | 1.07 µM | 3.48 µM | 1.71 µM | 1.48 µM |
| CCCC(=O)N[C@H]1CCc2cc(OC)c(OC)c(OC)c2-c2ccc(SC)c(=O)cc21 | 0.39 µM | 15.6 µM | > 100 µM | > 15.8 µM | > 100 µM | > 100 µM | – | > 100 µM | > 100 µM | – | – | – | – | – | – | – | – | > 100 µM | – | – |
| CC1CC2(S(=O)(=O)c3ccccc3)ON1CC2S(=O)(=O)c1ccccc1 (stereo not drawn) | – | > 100 µM | > 100 µM | > 100 µM | > 100 µM | > 100 µM | > 100 µM | > 100 µM | > 100 µM | – | – | – | – | – | – | – | – | – | – | – |
| COC(=O)C(=O)C(CC(=O)Nc1ccc(C)cc1)C(=O)OC (stereo not drawn) | – | – | > 100 µM | > 100 µM | > 100 µM | > 100 µM | > 100 µM | > 100 µM | > 100 µM | – | – | – | – | – | – | – | – | – | – | – |
